Like-named read-outs stand apart in the source and are kept apart here.
Assay: Plasma pharmacokinetics of TP-0903 and metabolites (LC-MS/MS, noncompartmental analysis)
Format: in vivo, human
Settings: for Pre-treatment trough / Cmax / Tmax / AUC(0-t) / concentration at 24 h: median (range); for Cmax / Tmax / AUC(0-t) / concentration at 24 h: human, plasma, oral; for AUC(0-t): read-out: AUC0-24h; for concentration at 24 h: read-out: C24h trough
Protocol: On days 1 and 10 of cycle 1, plasma samples were collected for PK analysis from a total of 25 patients. In the phase 1b study portion of the study, plasma was collected before administration of TP-0903 on day 10 and at 0.5, 1, 2, 4, 8, and 24 hours after administration of TP-0903 on days 1 and 10. In the phase 2 portion of the study, plasma was collected at 2, 4, and 24 hours after drug administration. A validated ultrahigh-performance LC-MS/MS method was developed and used to quantify TP-0903 and its four major metabolites (M2, M3, M4, and M6) in plasma.
TP-0903 and its metabolites M2, M3, M4, and M6 were quantified in plasma using solid phase extraction and LC-MS/MS in the Ohio State University Comprehensive Cancer Center Pharmacoanalytical Shared Resource. See Supplementary Methods for details.
Sample preparation comprised 200 µL of K2EDTA plasma sample combined with 5 µL of 150 ng/mL internal standard mixture (TP-0903-d8 (NSN23293), M2-d8 (NSN23290), M3-d8 (NSN23292), M4-d8 (NSN23291), and M6-d8 (NSN23296)), 50 µL deionized (DI) water, and 50 µL of methanol in the wells of a 2-mL 96-well plate. Reference standards for TP-0903 (ditartrate salt), metabolites, and internal standards were obtained from Sumitomo Pharma America, Inc. (formerly Sumitomo Pharma Oncology, Inc.). Sample preparation was followed by shaking at 500 rpm for 5 minutes at room temperature and the addition of 1 mL of 0.1M sodium carbonate (791768-500G). After centrifugation at 3095 rcf for 10 minutes, 1 mL of supernatant was loaded onto a conditioned 30 mg HLB SPE plate (conditioning included 1 mL methanol flow through followed by 1 mL water flow through). After samples were loaded and passed through the SPE plate using a vacuum, the plate was washed with 1 mL DI water. Once the water passed through, analyte elution was done by loading 1 mL 2% formic acid in methanol, followed by drying with N2 gas heated to 40 °C. Once dried, they were resuspended with 100 µL reconstitution solution (22% acetonitrile, 22% methanol, 56% DI water, 0.5 mM ammonium acetate, and 0.2% formic acid). The chromatographic method utilized a gradient elution with mobile phase A (MPA; 15% acetonitrile, 15% methanol, 70% DI water, 0.5 mM ammonium acetate, and 0.2% formic acid) and mobile phase B (MPB; 45% acetonitrile, 45% methanol, 10% DI water, 0.5 mM ammonium acetate (09689-100G), and 0.2% formic acid (F0441-32)). The flow rate begins at 0.4 mL/min with 25% MPB, at 2.5 min the flow rate increased to 0.6 mL/min, at 5.5 minutes the %MPB increased to 100%, at 7.01 min the flow rate and %MPB decreased to 0.4 mL/min and 25%, respectively, until the end of the run. This method was run using an ACE Excel SuperC18 (3.0 x 75 mm, 5 µm, 90Å) column (EXL-1211-7503) with a ThermoFisher Scientific Vanquish™ – ThermoFisher Scientific (SCR_025713) TSQ Altis LC-MS/MS system (TSQ02-10002). The analytes and internal standards were evaluated in positive mode with the transitions monitored including M2 488.12->402.125, M2-d8 496.25->402.095, M3 502.2->402.113, M3-d8 510.2->402.113, M4 502.138->416.125, M4-d8 510.188->416.125, M6 518.112->402, M6-d8 526.2->402.113, and TP-0903 516.2->416.125, TP-0903-d8 524.237->416.125. […] Three quality control samples (QC Low, QC Medium, and QC High) were monitored during sample analyses to ensure the accuracy of assay quantitation. Additionally, a validation was performed that included the evaluation of selectivity, matrix effects, sensitivity, carry-over, freeze-thaw stability, processed sample stability, recovery, and dilution integrity (20X and 10X). Intra- and inter- day accuracy and precision of the calibrators and quality control samples, which also included the LLOQ for each analyte, was evaluated over 3 days. The quality control samples concentrations were continually monitored by statistical analysis of runs using Westgard rules (13s, 22s, R4s, and 10x) and adherence to FDA guidance of being within 15% except at the LLOQ of being within 20%. […]

[1] = TP-0903 dose 25mg, Day 10 of course 1, plasma
[2] = TP-0903 dose 37 mg, Day 10 of course 1, plasma
[3] = 25 mg, TP-0903 dose 25mg, Day 1 of course 1, plasma
[4] = 25 mg, TP-0903 dose 25mg, Day 10 of course 1, plasma
[5] = 37 mg, TP-0903 dose 37 mg, Day 1 of course 1, plasma
[6] = 37 mg, TP-0903 dose 37 mg, Day 10 of course 1, plasma

With `CN1CCN(Cc2ccc(Nc3ncc(Cl)c(Nc4ccccc4S(=O)(=O)N(C)C)n3)cc2)CC1.O=C(O)C(O)C(O)C(=O)O.O=C(O)C(O)C(O)C(=O)O` [TP-0903, 2-(5-chloro-2-(4-((4-methylpiperazin-1-yl)methyl)phenylamino)pyrimidin-4-yl)amino-N,N-dimethylbenzene-1-sulfonamide di-tartrate salt] the “Steady-state TP-0903 plasma exposure (Css Min on Day 10), responders vs non-responders” value (Supplementary Fig. S3A) was “no significant difference”, the “Decrease in absolute neutrophil count or platelets in patients with steady-state plasma exposure above the median” value (Supplementary Fig. S3B, S3C) was “did not have a greater decrease” and the Pre-treatment trough [1] was 7.1 (3.3-17) ng/mL. The Pre-treatment trough [2] was 5.3 (1.0-21) ng/mL, the Drug accumulation ratio (based on the median AUC, day 10 vs day 1, both groups) was “six” and the “Variation in the steady-state Cmax of parent TP-0903” value (both groups (37 mg and 25 mg)) was greater than 25 fold. It also gave a Cmax [3] of 2.4 ng/mL, a Tmax [3] of 2.8 h and an AUC(0-t) (25 mg, TP-0903 dose 25mg, Day 1 of course 1, plasma, N=11) of 42 ng·h/mL. It also gave a Cmax [4] of 14 ng/mL, a Tmax [4] of 3.5 h and an AUC(0-t) (25 mg, TP-0903 dose 25mg, Day 10 of course 1, plasma, N=8) of 260 ng·h/mL. The Cmax [5] was 3.3 ng/mL, the Tmax [5] was 2.1 h and the AUC(0-t) (37 mg, TP-0903 dose 37 mg, Day 1 of course 1, plasma, N=10) was 36 ng·h/mL. For the same compound, the Cmax [6] was 13 ng/mL, the Tmax [6] was 3.9 h and the AUC(0-t) (37 mg, TP-0903 dose 37 mg, Day 10 of course 1, plasma, N=9) was 210 ng·h/mL. For the same compound, the concentration at 24 h (TP-0903 dose 25mg, Day 1 of course 1, plasma) was 1.9 ng/mL, the concentration at 24 h [1] was 8.1 ng/mL and the concentration at 24 h (TP-0903 dose 37 mg, Day 1 of course 1, plasma) was 0.7 ng/mL. It also gave a concentration at 24 h [2] of 5.8 ng/mL.

Source: PMC12257073 (Cancer Research Communications, 2025)
